# Test results published in patent US12138256B2, “Treatment of cardiopulmonary disorders” (Bayer Aktiengesellschaft, priority 2021, dated 2024).
# Values joined by “and” are separate entries in the source; they are usually repeats but may differ in a detail not shown here. Equal values may be shown once.
# Test system: thromboxane analog U46619 induced PAH in minipigs
# Experiment: Haemodynamics (PAP, BP) in the anesthetized thromboxane challenged PAH minipig after inhaled (nebulized) application (C-2.1)
# Assay type: in vivo, Göttingen minipig
# Settings: for BP % change vs. baseline / PAP % change vs. baseline: 100 μg/kg nominal dose, individual animals; for % changes in BP vs baseline: inhaled 10 μg/kg
# Outline: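 Anesthetized, ventilated Göttingen minipigs (2-6 kg) given continuous infusion (0.3-0.75 μg/kg/min) to raise mean PAP above 25 mmHg, dosing starting after a 30 min plateau. Compound in 1% DMSO/0.2% citric acid, pH 8, nebulized via Aeroneb Pro into the inspiratory arm (~7 min; stock 300 μg/kg). PAP by Swan-Ganz catheter, BP via carotid catheter.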
smiles,measurement,setting,value
"O=C(O)c1ccc(CCN(CCc2cc(F)ccc2OCc2ccc(-c3nc4cc(Cl)ccc4o3)cc2)C2CCCc3nc(C(=O)O)ccc32)cc1 (single isomer, unassigned) [comparative example 4, 5-{[2-(4-Carboxyphenyl)ethyl][2-(2-{[4-(5-chloro-1,3-benzoxazol-2-yl)benzyl]oxy}-5-fluorophenyl)-ethyl]amino}-5,6,7,8-tetrahydroquinoline-2-carboxylic acid]",BP % change vs. baseline,"inhaled, time 80 min",101.1% and 101.2% and 101.0%
same,PAP % change vs. baseline,"inhaled, time 80 min",102.0% and 96.2% and 97.5%
same,BP % change vs. baseline,"inhaled, time 90 min",98.7% and 100.3% and 101.0%
same,PAP % change vs. baseline,"inhaled, time 90 min",100.2% (2×) and 102.2%
same,BP % change vs. baseline,"inhaled, time 100 min",101.1% and 100.3% and 98.3%
same,PAP % change vs. baseline,"inhaled, time 100 min",100.0% and 93.1% and 96.4%
same,BP % change vs. baseline,"inhaled, time 110 min",99.9% and 102.2% and 98.3%
same,PAP % change vs. baseline,"inhaled, time 110 min",97.2% and 88.9% and 89.8%
same,BP % change vs. baseline,"inhaled, time 120 min",101.1% and 101.2% and 101.9%
same,PAP % change vs. baseline,"inhaled, time 120 min",86.5% and 86.2% and 86.0%
same,BP % change vs. baseline,"inhaled, time 130 min",99.9% and 99.4% and 100.1%
same,PAP % change vs. baseline,"inhaled, time 130 min",77.5% and 78.6% and 84.6%
same,BP % change vs. baseline,"inhaled, time 140 min",99.9% and 99.4% and 100.1%
same,PAP % change vs. baseline,"inhaled, time 140 min",76.3% and 77.7% and 81.3%
same,BP % change vs. baseline,"inhaled, time 150 min",99.9% and 98.5% and 100.1%
same,PAP % change vs. baseline,"inhaled, time 150 min",77.3% and 75.0% and 78.7%
same,BP % change vs. baseline,"inhaled, time 160 min",99.9% and 96.7% and 99.2%
same,PAP % change vs. baseline,"inhaled, time 160 min",75.5% and 71.4% and 77.3%
same,BP % change vs. baseline,"inhaled, time 170 min",101.1% and 97.6% and 99.2%
same,PAP % change vs. baseline,"inhaled, time 170 min",72.1% and 71.9% and 75.1%
same,BP % change vs. baseline,"inhaled, time 180 min",102.3% and 95.8% and 99.2%
same,PAP % change vs. baseline,"inhaled, time 180 min",74.0% and 68.0% and 75.9%
same,BP % change vs. baseline,"inhaled, time 190 min",102.3% and 95.8% and 99.2%
same,PAP % change vs. baseline,"inhaled, time 190 min",74.5% and 65.0% and 77.1%
same,BP % change vs. baseline,"inhaled, time 200 min",102.3% and 94.0% and 99.2%
same,PAP % change vs. baseline,"inhaled, time 200 min",70.1% and 70.6% and 77.2%
same,BP % change vs. baseline,"inhaled, time 210 min",103.5% and 94.0% and 99.2%
same,PAP % change vs. baseline,"inhaled, time 210 min",70.8% and 65.6% and 76.8%
same,BP % change vs. baseline,"inhaled, time 220 min",105.9% and 95.8% and 98.3%
same,PAP % change vs. baseline,"inhaled, time 220 min",77.8% and 66.7% and 75.3%
same,BP % change vs. baseline,"inhaled, time 230 min",107.1% and 94.9% and 97.4%
same,PAP % change vs. baseline,"inhaled, time 230 min",82.5% and 71.3% and 73.9%
same,BP % change vs. baseline,"inhaled, time 240 min",107.1% and 94.0% and 97.4%
same,PAP % change vs. baseline,"inhaled, time 240 min",81.0% and 67.4% and 75.0%
same,BP % change vs. baseline,"inhaled, time 250 min",109.4% and 94.9% and 98.3%
same,PAP % change vs. baseline,"inhaled, time 250 min",79.0% and 72.2% and 75.0%
same,BP % change vs. baseline,"inhaled, time 260 min",107.1% and 94.9% and 98.3%
same,PAP % change vs. baseline,"inhaled, time 260 min",75.0% and 72.7% and 76.7%
same,BP % change vs. baseline,"inhaled, time 270 min",107.1% and 94.9% and 97.4%
same,PAP % change vs. baseline,"inhaled, time 270 min",70.3% and 71.1% and 78.4%
same,BP % change vs. baseline,"inhaled, time 280 min",107.1% and 94.9% and 99.2%
same,PAP % change vs. baseline,"inhaled, time 280 min",65.8% and 75.6% and 79.7%
same,BP % change vs. baseline,"inhaled, time 290 min",107.1% and 94.0% and 98.3%
same,PAP % change vs. baseline,"inhaled, time 290 min",68.3% and 73.4% and 79.9%
same,BP % change vs. baseline,"inhaled, time 300 min",107.1% and 94.9% and 99.2%
same,PAP % change vs. baseline,"inhaled, time 300 min",69.1% and 76.2% and 79.6%
same,BP % change vs. baseline,"inhaled, time 310 min",107.1% and 94.9% and 98.3%
same,PAP % change vs. baseline,"inhaled, time 310 min",62.8% and 79.9% and 79.5%
same,BP % change vs. baseline,"inhaled, time 320 min",104.7% and 94.9% and 99.2%
same,PAP % change vs. baseline,"inhaled, time 320 min",61.8% and 76.5% and 81.3%
same,BP % change vs. baseline,"inhaled, time 330 min",107.1% and 94.0% and 101.0%
same,PAP % change vs. baseline,"inhaled, time 330 min",63.1% and 77.9% and 83.3%
same,lung selectivity,"inhaled, nominal dose of 100 μg/kg",good lung selectivity
"O=C(O)CCCCN(CCc1ccccc1OCc1ccc(CCc2ccccc2)cc1)Cc1ccc(C(=O)O)cc1 [comparative example 1, 4-[((4Carboxybutyl)-{2-[(4-phenethylbenzyl)oxy]phenethyl}amino)methyl]benzoic acid]",% changes in BP vs baseline,"0 min vs. start inhalation, listed as Cinaciguat",100% and 101%
same,% changes in BP vs baseline,"10 min vs. start inhalation, listed as Cinaciguat",89% and 86%
same,% changes in BP vs baseline,"20 min vs. start inhalation, listed as Cinaciguat",83% and 82%
same,% changes in BP vs baseline,30 min vs. start inhalation,82%
same,% changes in BP vs baseline,40 min vs. start inhalation,84%
same,% changes in BP vs baseline,"50 min vs. start inhalation, listed as Cinaciguat",87% and 85%
same,% changes in BP vs baseline,"60 min vs. start inhalation, listed as Cinaciguat",91% and 87%
same,% changes in BP vs baseline,"70 min vs. start inhalation, listed as Cinaciguat",94% and 88%
same,% changes in BP vs baseline,"80 min vs. start inhalation, listed as Cinaciguat",95% and 90%
same,% changes in BP vs baseline,"90 min vs. start inhalation, listed as Cinaciguat",99% and 92%
same,% changes in BP vs baseline,"−5 min vs. start inhalation, listed as Cinaciguat",100% and 99%
